# Test results reported in patent US9085536B2, “Aconitine compounds, compositions, uses, and preparation thereof” (priority 2011, dated 2015).
# Read-outs that look alike come from different tables or passages of the source.
# Tests used:
# [1] = biological target: T1, rNaV1.4 expressed in CHO cells (Rattus norvegicus, UniProt P15390); assay: Na+ current block at steady state, whole-cell patch clamp with pulse trains; assay type: cell-based; details: for depolarizing pulses required to reach steady-state block: 10 Hz pulse trains
# T1 construct: expressed in transfected cells; host or cells: CHO cells
# Experimental: Binding of aconitine to NaV is use-dependent and is known to result both in a left shift of the current-voltage (I-V) relationship and in partial block of the channel. […] To determine whether aconitine binding is reversible, two experiments were designed. First, as block by aconitine is known to be use dependent, peak current was measured as a function of pulse number in the presence of two different concentrations of aconitine. Since aconitine binds preferentially to the open state of the sodium channel, a pulse train was applied sequentially with a control pulse used to record peak current. The pulse train consisted of a series of 50 depolarizing pulses (from −100 mV holding potential to 0 mV, 10 ms duration) applied at 10 Hz frequency, while the control pulse consisted of a single depolarizing pulse (from −100 mV holding potential to 0 mV test potential, 10 ms duration).
# Pulse trains of 10 Hz frequency and control pulses were applied sequentially to cells expressing rNaV1.4, and currents elicited from the control pulse were recorded after each pulse train. This process was repeated until the current elicited from the control pulse had reached a steady state and was no longer decreasing with each additional pulse train. If block were irreversible, this steady state current would be expected to be independent of toxin concentration—the toxin would not be able to dissociate from its receptor, and the number of toxin molecules is much greater than the number of sodium channels (assuming a 100 μL chamber containing 1000 CHO cells, each expressing 10,000 sodium channels, at 50 μM concentration toxin molecules outnumber receptors by a factor of 3×10^8:1), therefore, all receptors would eventually reach the bound state.
# Block by aconitine is known to be use-dependent, therefore the use-dependence of the C14 derivatives of aconitine was evaluated. Peak Na current was measured as a function of pulse number in the presence of different concentrations of the molecules. […] Since aconitine binds preferentially to the open state of the sodium channel, a pulse train was applied sequentially with a control pulse used to record peak current. The pulse train consisted of a series of 50 depolarizing pulses (from −100 mV holding potential to 0 mV, 10 ms duration) applied at 10 Hz frequency, while the control pulse consisted of a single depolarizing pulse (from −100 mV holding potential to 0 mV test potential, 10 ms duration).
# Pulse trains of 10 Hz frequency and control pulses were applied sequentially to CHO cells expressing rNaV1.4, and currents elicited from the control pulse were recorded after each pulse train. This process was repeated until the current elicited from the control pulse had reached a steady state and was no longer decreasing with each additional pulse train. If block were irreversible, this steady state current would be expected to be independent of toxin concentration—the toxin would not be able to dissociate from its receptor, and the number of toxin molecules is much greater than the number of sodium channels, therefore, all receptors would eventually reach the bound state.
# The ability of the synthesized aconitine derivatives to block NaV channels was evaluated with patch-clamp experiments in the whole-cell configuration on CHO cells expressing rNaV1.4 heterologously. A buffer solution containing the toxin was applied to the cells, whole-cell Na^+ currents were recorded until the decreasing current reached a steady-state (300 to 3000 pulses, depending on the molecules and concentrations). The peak Na^+ currents were measured with a depolarizing test pulse (from −100 mV holding potential to 0 mV test potential, 10 ms duration).
# [2] = biological target: T1, rNaV1.4 expressed in CHO cells; assay: Steady-state inactivation, whole-cell recording, Boltzmann fit; assay type: cell-based
# Experimental: . The channels were modified by perfusing the cells with buffered solution containing aconitine at the given concentrations and then simple pulses (10 ms pulses to 0 mV from −100 mV holding potential) were recorded until the currents leveled to a steady value (typically ˜1000 pulses). Steady-state fast inactivation of the current was then determined by delivering 500 ms conditioning pulses to potentials ranging from −130 to −11 mV (7 my increments) immediately followed by a 10 ms test pulse to 0 mV to test the available current. The peak current measured during the test pulse was normalized to the maximum peak current recorded in the conditioning pulses. […] Midpoint voltage V0.5 represents the membrane potential at which half maximum current is observed; slope factor at midpoint k quantifies the rate at which the inactivation response occurs.
# [3] = biological target: T1, rNaV1.4 expressed in CHO cells; assay: Activation: current-voltage (I-V) and conductance-voltage (G-V) relationship, whole-cell recording; assay type: cell-based; details: 50 μM
# Experimental: To determine if the shift in I-V relationship is affected by the aromaticity of the aconitine C14 benzoate, current-voltage relationships were recorded for control cells expressing NaV, those that had been modified by aconitine, and those that had been modified by aconitine C14-cyclohexanoate 4.8d. For the modified channels, solutions of 50 μM concentration of the respective toxins were perfused onto the cells, and then depolarizing pulses were applied until a steady state current was observed, generally requiring about 1000 pulses. At that time, current-voltage relationships were again recorded. […] A shift towards hyperpolarizing potentials is clearly observed in both cases. Currents recorded at −50 mV are highlighted for all three experiments.
# To determine the effect on current-voltage (I-V) relationship of the aconitine derivatives, whole cell currents were recorded in cells expressing NaV in the presence of aconitine derivatives. Control I-V plots were recorded with unmodified NaV1.4, to which were compared NaV channels modified by aconitine as well as by selected analogs. For the modified channels, solutions of the respective toxins were perfused onto the cells, and then depolarizing pulses were applied until a steady state current was observed, generally requiring about 1000 pulses. A sequence of test pulses was then recorded to determine the current-voltage relationships (using a step protocol in which CHO cells were depolarized for 10 ms from a holding potential of −100 mV to a range of potentials from −95 mV to +30 mV in 5 or 10 mV increments; peak currents were normalized to the maximum peak current and plotted against voltage).
# [4] = total dose; cited from earlier work
# [5] = biological target: T1, rNaV1.4 expressed in CHO cells; assay type: cell-based
# Experimental: […] […] It is noteworthy that little or no increase in current was observed during wash off when no depolarizing pulses were applied and peak current was measured as a function of time.
# Since the molecules bind to the open-state of the Nav channel their release also requires activation pulses. In typical experiments, buffered external solution was perfused and a pulse train sequence was applied to the patch-clamp until the current reached a steady-state for at least two minutes.
# T1 sequence (P15390 whole entry): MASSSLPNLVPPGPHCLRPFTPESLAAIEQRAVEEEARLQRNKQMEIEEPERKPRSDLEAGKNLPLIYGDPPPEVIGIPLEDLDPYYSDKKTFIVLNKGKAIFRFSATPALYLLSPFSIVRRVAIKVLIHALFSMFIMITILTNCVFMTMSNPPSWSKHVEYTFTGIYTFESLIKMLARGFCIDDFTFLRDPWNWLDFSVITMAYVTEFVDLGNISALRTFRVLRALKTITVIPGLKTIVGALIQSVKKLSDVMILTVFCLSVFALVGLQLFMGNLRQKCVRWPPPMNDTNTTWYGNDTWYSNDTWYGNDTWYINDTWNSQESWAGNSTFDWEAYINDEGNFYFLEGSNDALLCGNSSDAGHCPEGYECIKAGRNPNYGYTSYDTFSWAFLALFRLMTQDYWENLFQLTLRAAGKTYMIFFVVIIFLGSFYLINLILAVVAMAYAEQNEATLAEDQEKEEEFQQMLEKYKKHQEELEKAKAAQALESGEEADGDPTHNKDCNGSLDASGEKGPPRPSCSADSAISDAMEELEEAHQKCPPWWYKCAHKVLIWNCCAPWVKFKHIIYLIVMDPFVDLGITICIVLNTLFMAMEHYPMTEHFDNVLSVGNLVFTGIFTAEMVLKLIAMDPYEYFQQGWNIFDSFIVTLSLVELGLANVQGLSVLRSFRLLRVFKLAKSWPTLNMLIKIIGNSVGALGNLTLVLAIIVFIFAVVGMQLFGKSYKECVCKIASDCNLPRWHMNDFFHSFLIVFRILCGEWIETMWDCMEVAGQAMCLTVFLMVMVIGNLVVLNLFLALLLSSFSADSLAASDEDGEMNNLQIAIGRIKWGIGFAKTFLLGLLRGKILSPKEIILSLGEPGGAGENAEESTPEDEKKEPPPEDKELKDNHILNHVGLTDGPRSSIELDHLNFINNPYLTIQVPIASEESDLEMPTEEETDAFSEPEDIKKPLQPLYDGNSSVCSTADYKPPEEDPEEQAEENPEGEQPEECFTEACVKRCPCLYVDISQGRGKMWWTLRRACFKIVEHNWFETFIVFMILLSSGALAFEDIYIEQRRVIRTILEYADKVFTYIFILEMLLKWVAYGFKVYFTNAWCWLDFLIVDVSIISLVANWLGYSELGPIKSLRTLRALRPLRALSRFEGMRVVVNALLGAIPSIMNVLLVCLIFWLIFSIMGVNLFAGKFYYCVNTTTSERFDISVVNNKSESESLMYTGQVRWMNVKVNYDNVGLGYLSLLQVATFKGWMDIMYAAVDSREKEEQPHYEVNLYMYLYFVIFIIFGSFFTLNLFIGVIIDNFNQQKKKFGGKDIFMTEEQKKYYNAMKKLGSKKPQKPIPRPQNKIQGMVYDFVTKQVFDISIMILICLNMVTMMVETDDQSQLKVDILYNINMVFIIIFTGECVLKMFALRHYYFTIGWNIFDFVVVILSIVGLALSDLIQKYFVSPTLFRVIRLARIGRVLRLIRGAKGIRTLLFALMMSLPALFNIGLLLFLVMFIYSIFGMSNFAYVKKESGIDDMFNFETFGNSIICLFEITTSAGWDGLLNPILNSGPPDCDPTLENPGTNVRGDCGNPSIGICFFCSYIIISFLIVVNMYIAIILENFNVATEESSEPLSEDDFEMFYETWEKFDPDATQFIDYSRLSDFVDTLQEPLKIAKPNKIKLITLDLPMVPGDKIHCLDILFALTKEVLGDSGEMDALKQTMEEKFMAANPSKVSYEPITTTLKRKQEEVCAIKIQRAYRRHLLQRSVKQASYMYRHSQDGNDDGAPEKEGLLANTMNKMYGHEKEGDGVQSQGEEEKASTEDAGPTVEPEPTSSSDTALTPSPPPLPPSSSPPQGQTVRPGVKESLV
smiles,measurement,setting,value
"CCN1CC2(COC)C3C(OC)C4C1C3(C1C[C@@]3(O)[C@H](OC(=O)c5ccccc5)[C@@H]1[C@]4(OC(C)=O)[C@@H](O)[C@@H]3OC)[C@@H](OC)C[C@H]2O (some centres unmarked) [Aconitine, aconitine]",peak current blocked at steady state,[1],40%
same,% Remaining current after reaching steady-state binding,[1]; 5 μM,40%
same,% Remaining current after reaching steady-state binding,[1]; 20 μM,19%
same,peak current blocked at steady state,[1]; 20 μM,81%
same,Current measured at 20 μM (%),"[1]; 20 μM, before wash-off",19%
same,depolarizing pulses required to reach steady-state block,[1]; 20 μM,around 600 pulses
same,% Remaining current after reaching steady-state binding,[1]; 50 μM,13%
same,peak current blocked at steady state,[1]; 50 μM,83%
same,depolarizing pulses required to reach steady-state block,[1]; 50 μM,approximately 800 pulses
same,% Remaining current after reaching steady-state binding,"[1]; 50 μM, listed as aconitine",15%
same,% Remaining current after reaching steady-state binding,[1]; 75 μM,13%
same,peak current blocked at steady state,[1]; 75 μM,87%
same,Current measured at 75 μM (%),"[1]; 75 μM, before wash-off",13%
same,depolarizing pulses required to reach steady-state block,[1]; 75 μM,800 pulses
same,% Remaining current after reaching steady-state binding,[1]; 200 μM,5%
same,peak current blocked at steady state,[1]; 200 μM,approximately 94%
same,depolarizing pulses required to reach steady-state block,[1]; 200 μM,300 pulses
same,depolarizing pulses required to reach steady-state block,[1]; 5 (unit not printed),over 2500 pulses
same,Steady-state inactivation V0.5 (mV),[2]; 5 μM,−65.1 mV
same,Steady-state inactivation k (slope factor at midpoint),[2]; 5 μM,6.50
same,Steady-state inactivation V0.5 (mV),[2]; 50 μM,−65 mV
same,Steady-state inactivation k (slope factor at midpoint),[2]; 50 μM,5.97
same,Steady-state inactivation V0.5 (mV),[2]; 200 μM,−82.4 mV
same,Steady-state inactivation k (slope factor at midpoint),[2]; 200 μM,21.0
same,Activation V0.5 (mV),[3],−40.3 mV
same,Activation hg,[3],10.4
same,membrane potential at which maximum inward Na current occurs,[3],around −10 mV
same,current at −50 mV,"[3]; after about 1000 pulses, no current in control cells",substantial currents
same,"lethal doses in humans, estimated",[4],1 to 5 mg
same,current restoration during wash off,"[5]; after 200 μM and 1000 depolarizing pulses, toxin-free buffer with pulses",significant current restoration
same,Current after wash-off (%),[5]; after wash-off of 20 μM,94%
same,Current after wash-off (%),[5]; after wash-off of 75 μM,62%
